Experimental data published in patent US20240190841A1, “MODULATORS OF BCL6 PROTEOLYSIS AND ASSOCIATED METHODS OF USE” (Arvinas Operations, Inc., priority 2022, published 2024).

Target: T1, BCL6 (Homo sapiens, UniProt P41182)
T1 construct: endogenous in cells; host or cells: T47D breast cancer epithelial cells
Assay: Immunofluorescence high content imaging of BCL6 degradation in T47D cells
Type: cell-based
Settings: T47D breast cancer epithelial cells, 3 days incubation
Outline: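 T47D breast cancer cells treated 3 days at 37 °C with an 11-point 3-fold dilution series (top final 0.1 or 1 μM). Fixed with 4% PFA, Triton-permeabilised, stained with anti-BCL6 rabbit antibody plus Alexa-488 secondary, CellMask and Hoechst; imaged at 10×, 4 fields/well.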

DC50 [µM]	Dmax [%]	Compound
< 0.01	50 to 70	CNC(=O)COc1cc2cc(Nc3nc(N4CCC(CN5CCC(N6CCN(c7ccc8c(c7F)CN(C7CCC(=O)NC7=O)C8=O)CC6)C(F)(F)C5)CC4)ncc3Cl)ccc2n(C(C)C)c1=O (stereo not drawn) [Compound 42, 2-({6-[(5-chloro-2-{4-[(4-{4-[2-(2,6-dioxopiperidin-3-yl)-4-fluoro-1-oxo-3H-isoindol-5-yl]piperazin-1-yl}-3,3-difluoropiperidin-1-yl)methyl]piperidin-1-yl}pyrimidin-4-yl)amino]-1-isopropyl-2-oxoquinolin-3-yl}oxy)-N-methylacetamide]
< 0.01	50 to 70	CNC(=O)COc1cc2cc(Nc3nc(N4CCC(CN5CCC(N6CCC(c7ccc8c(c7F)CN(C7CCC(=O)NC7=O)C8=O)CC6)C(F)(F)C5)CC4)ncc3Cl)ccc2n(C(C)C)c1=O (stereo not drawn) [Compound 43, 2-{[6-({5-chloro-2-[4-({4-[2-(2,6-dioxopiperidin-3-yl)-4-fluoro-1-oxo-2,3-dihydro-1H-isoindol-5-yl]-3′,3′-difluoro-[1,4′-bipiperidin]-1′-yl}methyl)piperidin-1-yl]pyrimidin-4-yl}amino)-2-oxo-1-(propan-2-yl)-1,2-dihydroquinolin-3-yl]oxy}-N-methylacetamide]
< 0.01	50 to 70	CNC(=O)COc1cc2cc(Nc3nc(N4CCC(CN5CCC(C6CCN(c7ccc8c(c7F)CN(C7CCC(=O)NC7=O)C8=O)CC6)C(F)C5)CC4)ncc3Cl)ccc2n(C(C)C)c1=O (stereo not drawn) [Compound 44, 2-{[6-({5-chloro-2-[4-({1′-[2-(2,6-dioxopiperidin-3-yl)-4-fluoro-1-oxo-2,3-dihydro-1H-isoindol-5-yl]-3-fluoro-[4,4′-bipiperidin]-1-yl}methyl)piperidin-1-yl]pyrimidin-4-yl}amino)-2-oxo-1-(propan-2-yl)-1,2-dihydroquinolin-3-yl]oxy}-N-methylacetamide]
